According to article PMC8896685 (PLoS ONE, 2022):
Numbered stars: 1 amine (or outer) side, 2 acyl side, 3 side chain; on linkers, the order of the positions; unused ones are H or OH. Square brackets hold non-standard residues; d marks the D form. Side chains are listed from the residue outwards. Peptide text beside a SMILES is read from it. * marks the point of attachment. C18 diacid = O=C(O)CCCCCCCCCCCCCCCCC(=O)*; γGlu = O=C(O)[C@H](CCC(=O)[*:2])N[*:1]; Desaminohistidyl = O=C(CCc1c[nH]cn1)*; Ac4c = NC1(C(=O)O)CCC1; AEEA = NCCOCCOCC(=O)O; Aib = CC(C)(N)C(=O)O

Columns and labels:
Mouse GCGR [1] = biological target: T1, Mouse GCGR (Mus musculus, UniProt Q61606); assay: Receptor binding, SPA competitive binding assay; conditions: SPA competitive binding on BHK cell membranes, [125I]-glucagon tracer, 1% species specific plasma, 2 h 30°C; value (95% CI)
T1 construct: a plasmid encoding either the glucagon receptor or the GLP-1 receptor from the relevant species; expressed in transfected cells
T1 sequence (Q61606 27-485): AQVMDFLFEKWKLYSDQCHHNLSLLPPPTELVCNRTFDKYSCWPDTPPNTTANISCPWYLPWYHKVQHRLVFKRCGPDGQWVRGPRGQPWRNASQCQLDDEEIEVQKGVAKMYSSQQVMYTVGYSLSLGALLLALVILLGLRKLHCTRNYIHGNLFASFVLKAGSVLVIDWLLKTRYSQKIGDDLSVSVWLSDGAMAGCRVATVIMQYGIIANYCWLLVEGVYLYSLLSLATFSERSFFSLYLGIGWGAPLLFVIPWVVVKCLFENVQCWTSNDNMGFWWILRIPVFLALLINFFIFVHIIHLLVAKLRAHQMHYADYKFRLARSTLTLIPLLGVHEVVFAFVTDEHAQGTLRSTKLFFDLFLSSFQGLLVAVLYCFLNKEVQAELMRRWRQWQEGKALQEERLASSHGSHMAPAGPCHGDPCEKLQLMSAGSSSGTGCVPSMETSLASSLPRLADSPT
Method: (§1) The binding assay was performed on cell membranes in the presence of 1% (v/v) species-specific heparin-treated pooled plasma (Bioreclamation IVT, Westbury, NY) diluted in assay buffer (50 mM HEPES supplemented with 5 mM EGTA, 5 mM MgCl2, and 0.005% (v/v) Tween 20, pH7.4). […] Cells stably expressing an individual receptor of interest were grown at 5% CO2, 37°C in DMEM (supplemented with 10% FCS, 0.5 mg/ml G418 and 0.3 mg/ml hygromycin). Membrane preparations were made from cells harvested at approximately 80% confluence, washed and homogenized in 20 mM HEPES with 0.1 mM EDTA, pH 7.4. Protein concentration was determined, and the membranes were stored at -80°C until use. The membrane binding assay was performed in a 96-well OptiPlate (PerkinElmer) in a total volume of 200 μl. Test compounds were dissolved in 80% DMSO and further diluted in assay buffer. 50 μl of diluted plasma was added to the assay plate wells followed by addition of test compounds (25 μl), cell membranes (50 μl, 0.06 mg/ml), SPA beads (20 mg/ml in assay buffer) and radioligand (60,000 cpm/well, corresponding to 0.06 nM; 2200 Ci/mmol. Each assay plate was incubated for 2 h at 30°C, centrifuged at 1500 rpm for 10 minutes and counted in a TopCount NXT instrument (PerkinElmer).
(§2) For the receptor binding assays, logIC50 values were calculated using non-linear regression analysis. The error estimation was reported as the 95% confidence interval. […] The calculations were performed in GraphPad Prism 6.4 (GraphPad, San Diego, CA) and error estimation was expressed as the 95% confidence interval. […] Averages, error estimation, ratios and plasma shifts were all calculated on logIC50 or logEC50 values and transformed to the anti-log values for reporting purposes.

Mouse GCGR [2] = biological target: T1, Mouse GCGR; assay: Receptor potency, CRE-luciferase functional assay in BHK cells; format: cell-based; conditions: Mouse receptors, whole BHK cells, 3 h 37°C, value (95% CI)
Method: as §1
(§3) Functional assays were performed on whole cells in the absence or presence of 100% species-specific heparin-treated pooled plasma (Bioreclamation IVT). […] The cells were cultured with DMEM (supplemented with GlutaMAX, 10% FBS, 0.5 mg/ml G418 and 0.3 mg/ml hygromycin) at 5% CO2 and 37°C. At approximately 80–90% confluence, cells were washed with PBS and harvested with Versene (Life Technologies, Carlsbad, CA). The cells were counted and plated into 96-well microtiter plates coated with poly-D-Lys (Corning BioCoat) with 5,000 cells/well and thereafter incubated overnight in growth media. The next day the media was changed to assay buffer (DMEM without phenol red, supplemented with GlutaMAX, 10 mM HEPES, 1% ovalbumin and 0.1% Pluronic F-68) or to 100% plasma. In the absence of plasma, compounds were diluted in assay buffer. In assays tested with plasma, compounds were diluted in pure plasma. Buffer was removed from the plates and 50 μl of test compound dilutions was added to the plates followed by 50 μl of plasma or the same buffer used for compound dilution. The assay plates were incubated for 3 h in a 5% CO2 incubator at 37°C. The plates were then transferred to room temperature for 15 min and 100 μl Steadylite Plus reagent (PerkinElmer) was added to each well. The plates were shaken for 30 min at room temperature while protected from light after which luminescence was measured.
as §2

Mouse GLP-1R = biological target: T2, Mouse GLP-1R (Mus musculus, UniProt O35659); assay: as above; format: cell-based; conditions: Mouse receptors, whole BHK cells, 3 h 37°C, value (95% CI)
T2 construct: a plasmid encoding either the glucagon receptor or the GLP-1 receptor from the relevant species; expressed in transfected cells
T2 sequence (O35659 22-463): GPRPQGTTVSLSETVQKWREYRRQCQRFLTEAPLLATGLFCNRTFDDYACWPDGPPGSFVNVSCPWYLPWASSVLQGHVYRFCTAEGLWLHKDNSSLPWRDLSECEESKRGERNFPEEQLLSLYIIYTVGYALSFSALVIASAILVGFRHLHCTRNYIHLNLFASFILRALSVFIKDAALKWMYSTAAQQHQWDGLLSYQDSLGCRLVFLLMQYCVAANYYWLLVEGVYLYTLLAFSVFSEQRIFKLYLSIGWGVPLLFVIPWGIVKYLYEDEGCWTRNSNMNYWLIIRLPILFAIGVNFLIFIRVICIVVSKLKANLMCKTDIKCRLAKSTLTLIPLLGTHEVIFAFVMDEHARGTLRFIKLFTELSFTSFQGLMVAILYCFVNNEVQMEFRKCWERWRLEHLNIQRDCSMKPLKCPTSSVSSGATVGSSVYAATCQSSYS
Method: as §1, §3, §2

DIO mice = assay: Subchronic effect on glucose tolerance in DIO mice (IPGTT at steady state); format: in vivo, mouse; conditions: after 3 weeks daily s.c. dosing, Cmax (5 h post dosing), p<0.001
DIO rats = assay: Subchronic effect on body weight, body composition and food intake in DIO rats; format: in vivo, rat; conditions: three weeks
From the text: Male C57Bl/6J mice were purchased from Jackson Lab (Bar Harbour, ME) or Taconic, (Denmark). Male Sprague Dawley rats were purchased from Taconic (Denmark). Lean animals were fed regular chow diet (Altromin 1324, Brogaarden, Denmark). Obese animals were fed a high-fat diet, 45% kcal from fat (D12492, Research Diets, New Brunswick, NJ) from the age of 4–6 weeks in order to obtain a diet induced obese (DIO) phenotype. Animals were housed under temperature and humidity-controlled conditions in a 12:12 hr light:dark cycle (lights on at 6 a.m.). Rats were housed three per cage during high fat feeding and were single housed five weeks prior to study. Mice were single housed, two per cage, with a partitioning wall where possible. All animals had ad libitum access to diet and water, except when fasted prior to experimental procedures. Animals were acclimatized to study conditions (energy expenditure cages, daily mock handling etc) at least one week prior to first dose. […] At the time of study, animals were 20–30 weeks old with a body weight of 45–50 g (DIO mice) or approximately 600 g (DIO rats). […] Oral glucose tolerance was evaluated on study day 15, 5 h post-dosing (at Cmax). Animals were fasted for 5 h prior to oral administration of glucose (3 g/kg). […] Conscious animals were MR-scanned prior to initiation of treatment and at the end of the treatment period.

Rat GCGR = biological target: T3, Rat GCGR (Rattus norvegicus, UniProt P30082); assay: Receptor potency, CRE-luciferase functional assay in BHK cells; format: cell-based; conditions: Rat receptors, whole BHK cells, 0% plasma, 3 h 37°C, value (95% CI)
T3 construct: a plasmid encoding either the glucagon receptor or the GLP-1 receptor from the relevant species; expressed in transfected cells
T3 sequence (P30082 27-485): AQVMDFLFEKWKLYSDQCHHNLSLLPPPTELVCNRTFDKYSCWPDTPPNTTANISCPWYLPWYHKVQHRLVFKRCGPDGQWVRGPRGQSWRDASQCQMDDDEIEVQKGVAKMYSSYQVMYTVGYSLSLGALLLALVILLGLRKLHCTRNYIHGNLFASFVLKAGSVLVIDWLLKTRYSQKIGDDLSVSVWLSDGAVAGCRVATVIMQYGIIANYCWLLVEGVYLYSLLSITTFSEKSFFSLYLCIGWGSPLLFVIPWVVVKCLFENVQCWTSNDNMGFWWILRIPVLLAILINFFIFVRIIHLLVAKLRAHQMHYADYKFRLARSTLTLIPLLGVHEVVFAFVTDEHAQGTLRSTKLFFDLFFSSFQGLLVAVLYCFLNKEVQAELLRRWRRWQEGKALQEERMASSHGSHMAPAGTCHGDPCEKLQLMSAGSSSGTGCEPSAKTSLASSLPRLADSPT
Method: as §1, §3, §2

[3] = GCGR EC50, pM (95% CI) 100% plasma, 100% species-specific plasma
[4] = GLP-1R EC50, pM (95% CI) 100% plasma, 100% species-specific plasma

Question: Which IC50 (Mouse GCGR [1]) does the source give for `CC[C@H](C)[C@H](NC(=O)[C@H](Cc1ccccc1)NC(=O)[C@H](CCC(=O)O)NC(=O)[C@H](CCCNC(=N)N)NC(=O)[C@H](C)NC(=O)[C@H](C)NC(=O)[C@H](CCC(N)=O)NC(=O)[C@H](CCC(=O)O)NC(=O)[C@H](CCC(=O)O)NC(=O)[C@H](CC(C)C)NC(=O)[C@H](Cc1ccc(O)cc1)NC(=O)[C@H](CCCCN)NC(=O)[C@H](CO)NC(=O)[C@@H](NC(=O)[C@H](CC(=O)O)NC(=O)[C@H](CO)NC(=O)[C@@H](NC(=O)[C@H](Cc1ccccc1)NC(=O)[C@@H](NC(=O)CNC(=O)[C@H](Cc1c[nH]cn1)NC(=O)C(C)(C)NC(=O)CCc1c[nH]cn1)[C@@H](C)O)[C@@H](C)O)C(C)C)C(=O)N[C@@H](C)C(=O)N[C@@H](Cc1c[nH]c2ccccc12)C(=O)N[C@@H](CC(C)C)C(=O)N[C@@H](CC(C)C)C(=O)N[C@@H](CCCCNC(=O)COCCOCCNC(=O)COCCOCCNC(=O)CC[C@H](NC(=O)CC[C@H](NC(=O)CCCCCCCCCCCCCCCCC(=O)O)C(=O)O)C(=O)O)C(=O)N[C@H](C(N)=O)[C@@H](C)O` [NN1359] (Desaminohistidyl-[Aib]HGTFTSDVSKYLEEQAAREFIAWLLK([AEEA-AEEA-γGlu-γGlu-C18 diacid])T-NH2) here?
Answer: The IC50 was 14000 pM.

Question: And the EC50 (Mouse GCGR [2]; GCGR EC50, pM (95% CI) 0% plasma, 0% plasma)?
Answer: The EC50 was 29.7 pM.

Question: What about the EC50 (Mouse GCGR [2]; [3]) of the same compound?
Answer: The EC50 was 2540 pM.

Question: What about the EC50 (Mouse GLP-1R; [4]) of the same compound?
Answer: Its EC50 is 95.3 pM.

Question: What about the “Basal blood glucose vs vehicle” value (DIO mice) of the same compound?
Answer: The value was “significantly improved”.

Question: Which results are given for `CC(C)C[C@H](NC(=O)[C@H](CC(=O)O)NC(=O)[C@H](CC(C)C)NC(=O)[C@H](Cc1ccc(O)cc1)NC(=O)[C@H](CCCCN)NC(=O)[C@H](CO)NC(=O)[C@H](CC(C)C)NC(=O)[C@H](CC(=O)O)NC(=O)[C@H](CO)NC(=O)[C@@H](NC(=O)[C@H](Cc1ccccc1)NC(=O)[C@@H](NC(=O)CNC(=O)[C@H](CCC(N)=O)NC(=O)C1(NC(=O)[C@@H](N)Cc2c[nH]cn2)CCC1)[C@@H](C)O)[C@@H](C)O)C(=O)N[C@@H](CCCNC(=N)N)C(=O)N[C@@H](CCCNC(=N)N)C(=O)N[C@@H](C)C(=O)N[C@@H](CCCNC(=N)N)C(=O)N[C@@H](CC(=O)O)C(=O)N[C@@H](Cc1ccccc1)C(=O)N[C@H](C(=O)N[C@@H](CCC(N)=O)C(=O)N[C@@H](Cc1c[nH]c2ccccc12)C(=O)N[C@@H](CC(C)C)C(=O)N[C@@H](CC(C)C)C(=O)N[C@@H](CCCCNC(=O)CC[C@H](NC(=O)CC[C@H](NC(=O)COCCOCCNC(=O)COCCOCCNC(=O)CC[C@H](NC(=O)CC[C@H](NC(=O)CCCCCCCCCCCCCCCCC(=O)O)C(=O)O)C(=O)O)C(=O)O)C(=O)O)C(=O)N[C@H](C(N)=O)[C@@H](C)O)C(C)C` [NN1151] (H-H[Ac4c]QGTFTSDLSKYLDLRRARDFVQWLLK([γGlu-γGlu-AEEA-AEEA-γGlu-γGlu-C18 diacid])T-NH2)?
Answer: EC50 (Mouse GCGR [2]; [3]): 60.3 pM; EC50 (Mouse GLP-1R; GLP-1R EC50, pM (95% CI) 0% plasma, 0% plasma): 1.13 pM; EC50 (Mouse GLP-1R; [4]): 161 pM; Basal blood glucose vs vehicle (DIO mice): improved

Question: What does the source list for `CC(C)C[C@H](NC(=O)[C@H](CC(C)C)NC(=O)[C@H](Cc1c[nH]c2ccccc12)NC(=O)[C@H](CCC(N)=O)NC(=O)[C@@H](NC(=O)[C@H](Cc1ccccc1)NC(=O)[C@H](CCC(=O)O)NC(=O)[C@H](CCCNC(=N)N)NC(=O)[C@H](C)NC(=O)[C@H](C)NC(=O)[C@H](CCCNC(=N)N)NC(=O)[C@H](CO)NC(=O)[C@H](CC(=O)O)NC(=O)[C@H](CC(C)C)NC(=O)[C@H](Cc1ccc(O)cc1)NC(=O)[C@H](CCCCN)NC(=O)[C@H](CO)NC(=O)[C@H](CC(C)C)NC(=O)[C@H](CC(=O)O)NC(=O)[C@H](CO)NC(=O)[C@@H](NC(=O)[C@H](Cc1ccccc1)NC(=O)[C@@H](NC(=O)CNC(=O)[C@H](CCC(=O)O)NC(=O)C(C)(C)NC(=O)[C@@H](N)Cc1c[nH]cn1)[C@@H](C)O)[C@@H](C)O)C(C)C)C(=O)N[C@@H](CC(N)=O)C(=O)N[C@@H](CCCCNC(=O)CC[C@H](NC(=O)CC[C@H](NC(=O)COCCOCCNC(=O)COCCOCCNC(=O)CC[C@H](NC(=O)CCCCCCCCCCCCCCCCC(=O)O)C(=O)O)C(=O)O)C(=O)O)C(N)=O` [GLP-1 reference] (H-H[Aib]EGTFTSDLSKYLDSRAAREFVQWLLNK([γGlu-γGlu-AEEA-AEEA-γGlu-C18 diacid])-NH2)?
Answer: Weight loss (DIO rats; 3 nmol/kg each compound s.c. once daily): 5%; Cumulative food intake (DIO rats; 3 nmol/kg s.c. once daily): equal reduction; EC50 (Mouse GCGR [2]; [3]): 442000 pM; EC50 (Mouse GLP-1R; [4]): 24.6 pM; EC50 (Rat GCGR): 35300 pM
